Assay results from patent US20200270309A1, “MALEIMIDE GROUP-MODIFIED ANGIOGENESIS INHIBITOR HM-1 AND USE THEREOF” (NANJING ANJI BIOLOGICAL TECHNOLOGY CO., LTD, priority 2017, published 2020).
Marks after values point to notes of the source that are not given here. Peptide text beside a SMILES is read from it. * marks the point of attachment. X64 = O=C1C=CC(=O)N1c1cccc(CCCCCCCCCC(=O)*)c1; X68 = O=C1C=CC(=O)N1c1ccccc1CCCCCCCCCCCC(=O)*; X72 = O=C1C=CC(=O)N1c1ccccc1CCCCCCCCCCC(=O)*; X55 = O=C1C=CC(=O)N1c1ccccc1CCCCCCCCC(=O)*; X46 = O=C1C=CC(=O)N1c1cccc(CCCCC(=O)*)c1

Columns and labels:
HUVECs = assay: Transwell migration inhibition on HUVECs; type: cell-based, human; conditions: for Inhibition rate (%): HUVEC migration vs blank control; for Cell migration number (Mean ± SD): HUVECs, transwell, 24 h
[1] = system: retinal vascular endothelial nuclei; assay: Neovascularization in a rat model of premature retinopathy; type: in vivo, rats; conditions: dose 0.05 μM in the vitreous chamber from day 7 of modeling for one week; counted on day 14; oxygen-induced neonatal rats
Procedure, shortened: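 Newborn rats kept 7 d in chamber alternating 80% and 10% O2 every 24 h (23 °C), then room air. Intravitreal injection of test agents on day 7, saline for model and control; eyes taken day 14, HE-stained 4 μm sections. Endothelial nuclei breaching retinal inner limiting membrane counted, averaged per section per eye (10 sections).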

[2] = system: corneal neovascularization; assay: Corneal neovascularization induced by alkali burn in BALB/c mice; type: in vivo; design: Inhibition rate (corneal neovascularization): concentration or dose not given beside the values; conditions: day 14 after alkali burn, vitreous injection once a day for 1 week
[3] = system: IL-1β production by mouse peritoneal macrophages; assay: IL-1β production by mouse peritoneal macrophages (ELISA); type: cell-based; conditions: for Inhibition rate: IL-1β production, vs model group; for IL-1β: mouse peritoneal macrophages, 48 h, ELISA
Procedure, shortened: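 Peptides tested at three concentration levels on adherent peritoneal macrophages harvested from mice 3 days after i.p. 6% starch broth, plated at 2×10^6 cells/mL. After 48 h culture with Dex as reference, IL-1β in supernatants was quantified.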

[4] = system: xylene-induced ear swelling; assay: Xylene-induced mouse ear swelling; type: in vivo; conditions: Kunming mice, injected once a day for 5 days; for Swelling degree / Swelling degree (mg): right minus left ear piece weight 2 h after xylene; for Inhibition rate (%): xylene-induced ear swelling
Procedure, shortened: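 Ear pieces punched and weighed 2 h after xylene (0.05 mL, right ear only; left ear as normal) gave swelling degree (right − left weight) and swelling rate (degree/left weight ×100%). Kunming mice received injections daily for 5 consecutive days, xylene applied 1 h after final dose.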

## C[C@H](NC(=O)CNC(=O)[C@H](CCCNC(=N)N)NC(=O)CCCCCCCCCc1cccc(N2C(=O)C=CC2=O)c1)C(=O)N[C@@H](CC(=O)O)C(=O)N[C@@H](CCCNC(=N)N)C(=O)N[C@@H](C)C(=O)NCC(=O)NCC(=O)NCC(=O)NCC(=O)N[C@@H](CCCNC(=N)N)C(=O)NCC(=O)N[C@@H](CC(=O)O)C(=O)O [X33] (X64-RGADRAGGGGRGD-OH)
HUVECs; dose 0.05 μM
  Inhibition rate (%): 42.63%
HUVECs; dose 0.1 μM
  Inhibition rate (%): 47.45%
HUVECs; dose 0.2 μM
  Inhibition rate (%): 54.20%
[1]
  Nuclei count (retinal vascular endothelial nuclei, average per section per eyeball): 7.654 ± 1.142
[2]
  Inhibition rate (corneal neovascularization): 47.20%
  MVD (corneal microvessel density): 35.50 ± 3.223
[3]; dose 0.05 μM
  Inhibition rate: 25.68%
  IL-1β: 699.41 ± 11.17 pg/mL
[3]; dose 0.1 μM
  Inhibition rate: 34.80%
  IL-1β: 613.62 ± 19.23 pg/mL
[3]; dose 0.2 μM
  Inhibition rate: 36.96%
  IL-1β: 593.32 ± 11.64 pg/mL
[4]; dose 2 mg/kg
  Swelling degree: 3.22 ± 0.59 mg
  Inhibition rate (%): 17.34%
[4]; dose 4 mg/kg
  Swelling degree (mg): 5.15 ± 0.19* mg
  Inhibition rate (%): 29.21%
[4]; dose 8 mg/kg
  Swelling degree (mg): 4.41 ± 0.9** mg
  Inhibition rate (%): 48.31%

## C[C@H](NC(=O)CNC(=O)[C@H](CCCNC(=N)N)NC(=O)CCCCCCCCCCc1ccccc1N1C(=O)C=CC1=O)C(=O)N[C@@H](CC(=O)O)C(=O)N[C@@H](CCCNC(=N)N)C(=O)N[C@@H](C)C(=O)NCC(=O)NCC(=O)NCC(=O)NCC(=O)N[C@@H](CCCNC(=N)N)C(=O)NCC(=O)N[C@@H](CC(=O)O)C(=O)O [X22] (X72-RGADRAGGGGRGD-OH)
HUVECs; dose 0.05 μM
  Inhibition rate (%): 48.22%
  Cell migration number (Mean ± SD): 555.03 ± 66.81
HUVECs; dose 0.1 μM
  Inhibition rate (%): 55.21%
  Cell migration number (Mean ± SD): 480.13 ± 67.49
HUVECs; dose 0.2 μM
  Inhibition rate (%): 57.65%
  Cell migration number (Mean ± SD): 453.97 ± 57.23
[1]
  Nuclei count (retinal vascular endothelial nuclei, average per section per eyeball): 7.368 ± 1.842
[2]
  Inhibition rate (corneal neovascularization): 46.70%
  MVD (corneal microvessel density): 35.84 ± 6.594
[3]; dose 0.05 μM
  Inhibition rate: 29.53%
  IL-1β: 663.21 ± 13.73 pg/mL
[3]; dose 0.1 μM
  Inhibition rate: 32.31%
  IL-1β: 637.07 ± 19.81 pg/mL
[3]; dose 0.2 μM
  Inhibition rate: 38.53%
  IL-1β: 578.51 ± 14.03 pg/mL
[4]; dose 2 mg/kg
  Swelling degree (mg): 4.72 ± 0.29* mg
  Inhibition rate (%): 24.24%
[4]; dose 4 mg/kg
  Swelling degree (mg): 3.67 ± 0.77** mg
  Inhibition rate (%): 41.09%
[4]; dose 8 mg/kg
  Swelling degree (mg): 3.42 ± 0.21** mg
  Inhibition rate (%): 45.10%

## C[C@H](NC(=O)CNC(=O)[C@H](CCCNC(=N)N)NC(=O)CCCCCCCCc1ccccc1N1C(=O)C=CC1=O)C(=O)N[C@@H](CC(=O)O)C(=O)N[C@@H](CCCNC(=N)N)C(=O)N[C@@H](C)C(=O)NCC(=O)NCC(=O)NCC(=O)NCC(=O)N[C@@H](CCCNC(=N)N)C(=O)NCC(=O)N[C@@H](CC(=O)O)C(=O)O [X20] (X55-RGADRAGGGGRGD-OH)
HUVECs; dose 0.05 μM
  Inhibition rate (%): 47.45%
  Cell migration number (Mean ± SD): 563.29 ± 41.22
HUVECs; dose 0.1 μM
  Inhibition rate (%): 49.79%
  Cell migration number (Mean ± SD): 538.18 ± 64.13
HUVECs; dose 0.2 μM
  Inhibition rate (%): 52.70%
  Cell migration number (Mean ± SD): 506.96 ± 57.65
[1]
  Nuclei count (retinal vascular endothelial nuclei, average per section per eyeball): 9.374 ± 3.742
[2]
  Inhibition rate (corneal neovascularization): 44.62%
  MVD (corneal microvessel density): 37.24 ± 6.113
[3]; dose 0.05 μM
  Inhibition rate: 17.90%
  IL-1β: 772.72 ± 18.78 pg/mL
[3]; dose 0.1 μM
  Inhibition rate: 23.02%
  IL-1β: 724.50 ± 12.58 pg/mL
[3]; dose 0.2 μM
  Inhibition rate: 32.89%
  IL-1β: 631.59 ± 19.52 pg/mL
[4]; dose 2 mg/kg
  Swelling degree: 5.72 ± 0.01 mg
  Inhibition rate (%): 8.19%
[4]; dose 4 mg/kg
  Swelling degree (mg): 3.78 ± 0.88** mg
  Inhibition rate (%): 39.33%
[4]; dose 8 mg/kg
  Swelling degree (mg): 3.47 ± 0.07** mg
  Inhibition rate (%): 44.30%

## C[C@H](NC(=O)CNC(=O)[C@H](CCCNC(=N)N)NC(=O)CCCCc1cccc(N2C(=O)C=CC2=O)c1)C(=O)N[C@@H](CC(=O)O)C(=O)N[C@@H](CCCNC(=N)N)C(=O)N[C@@H](C)C(=O)NCC(=O)NCC(=O)NCC(=O)NCC(=O)N[C@@H](CCCNC(=N)N)C(=O)NCC(=O)N[C@@H](CC(=O)O)C(=O)O [X28] (X46-RGADRAGGGGRGD-OH)
HUVECs; dose 0.05 μM
  Inhibition rate (%): 43.01%
HUVECs; dose 0.1 μM
  Inhibition rate (%): 52.75%
HUVECs; dose 0.2 μM
  Inhibition rate (%): 53.13%
[1]
  Nuclei count (retinal vascular endothelial nuclei, average per section per eyeball): 9.261 ± 3.879
[2]
  Inhibition rate (corneal neovascularization): 46.59%
  MVD (corneal microvessel density): 35.91 ± 4.891
[3]; dose 0.05 μM
  Inhibition rate: 15.78%
  IL-1β: 792.64 ± 11.74 pg/mL
[3]; dose 0.1 μM
  Inhibition rate: 31.90%
  IL-1β: 640.89 ± 14.7 pg/mL
[3]; dose 0.2 μM
  Inhibition rate: 32.28%
  IL-1β: 637.34 ± 10.85 pg/mL
[4]; dose 2 mg/kg
  Swelling degree (mg): 5.25 ± 0.56** mg
  Inhibition rate (%): 33.87%
[4]; dose 4 mg/kg
  Swelling degree: 4.86 ± 0.63 mg
  Inhibition rate (%): 15.73%
[4]; dose 8 mg/kg
  Swelling degree (mg): 4.12 ± 0.93* mg
  Inhibition rate (%): 21.99%

## C[C@H](NC(=O)CNC(=O)[C@H](CCCNC(=N)N)NC(=O)CCCCCCCCCCCc1ccccc1N1C(=O)C=CC1=O)C(=O)N[C@@H](CC(=O)O)C(=O)N[C@@H](CCCNC(=N)N)C(=O)N[C@@H](C)C(=O)NCC(=O)NCC(=O)NCC(=O)NCC(=O)N[C@@H](CCCNC(=N)N)C(=O)NCC(=O)N[C@@H](CC(=O)O)C(=O)O [X23] (X68-RGADRAGGGGRGD-OH)
HUVECs; dose 0.05 μM
  Inhibition rate (%): 48.22%
HUVECs; dose 0.1 μM
  Inhibition rate (%): 51.50%
HUVECs; dose 0.2 μM
  Inhibition rate (%): 52.06%
[1]
  Nuclei count (retinal vascular endothelial nuclei, average per section per eyeball): 8.275 ± 1.713
[2]
  Inhibition rate (corneal neovascularization): 46.95%
  MVD (corneal microvessel density): 35.67 ± 6.861
[3]; dose 0.05 μM
  Inhibition rate: 15.69%
  IL-1β: 793.48 ± 19.42 pg/mL
[3]; dose 0.1 μM
  Inhibition rate: 30.92%
  IL-1β: 650.17 ± 14.98 pg/mL
[3]; dose 0.2 μM
  Inhibition rate: 33.74%
  IL-1β: 623.64 ± 12.33 pg/mL
[4]; dose 2 mg/kg
  Swelling degree: 5.64 ± 0.84 mg
  Inhibition rate (%): 9.47%
[4]; dose 4 mg/kg
  Swelling degree (mg): 3.63 ± 0.51** mg
  Inhibition rate (%): 41.73%
[4]; dose 8 mg/kg
  Swelling degree (mg): 3.47 ± 0.06** mg
  Inhibition rate (%): 44.30%
